Data published in patent US10023570B2 (Array BioPharma, Inc., priority 2015, dated 2018).
Where a name gives a salt, the structure may show the parent alone.

The compounds below were run against human KDR protein in HEK-293 cells (Homo sapiens (Human), UniProt P35968) (assay: KDR Cell Assay (phospho-KDR in HEK-293 cells expressing inducible KDR)). Details: pKDR Cell HEK 10% FBS IC50, HEK-293 cells expressing inducible KDR, VEGF stimulated.
Format: cell-based
Experimental: The cellular potency of a compound inhibiting KDR kinase was determined in HEK-293 cells expressing an inducible human KDR protein. […] The cells were incubated for 1 hour with test compound in DMEM at a final DMSO concentration of 0.25%. […] The media was aspirated and 35 μL of a 1× lysis buffer was added. […] The lysate was stored at −80° C. until ready for assay. Phospho-KDR was measured using a phospho-KDR kit (Catalog #K151BOC) purchased from Meso Scale Diagnostics (Rockville, Md.) according to the manufacturer's instructions. All values are expressed as percent of percent of control (POC). The POC values were fitted to a 4 parameter logistic curve fit and the IC50 value is point where the curve crosses 50 POC.

Chain of human KDR protein in HEK-293 cells (P35968 20-1356): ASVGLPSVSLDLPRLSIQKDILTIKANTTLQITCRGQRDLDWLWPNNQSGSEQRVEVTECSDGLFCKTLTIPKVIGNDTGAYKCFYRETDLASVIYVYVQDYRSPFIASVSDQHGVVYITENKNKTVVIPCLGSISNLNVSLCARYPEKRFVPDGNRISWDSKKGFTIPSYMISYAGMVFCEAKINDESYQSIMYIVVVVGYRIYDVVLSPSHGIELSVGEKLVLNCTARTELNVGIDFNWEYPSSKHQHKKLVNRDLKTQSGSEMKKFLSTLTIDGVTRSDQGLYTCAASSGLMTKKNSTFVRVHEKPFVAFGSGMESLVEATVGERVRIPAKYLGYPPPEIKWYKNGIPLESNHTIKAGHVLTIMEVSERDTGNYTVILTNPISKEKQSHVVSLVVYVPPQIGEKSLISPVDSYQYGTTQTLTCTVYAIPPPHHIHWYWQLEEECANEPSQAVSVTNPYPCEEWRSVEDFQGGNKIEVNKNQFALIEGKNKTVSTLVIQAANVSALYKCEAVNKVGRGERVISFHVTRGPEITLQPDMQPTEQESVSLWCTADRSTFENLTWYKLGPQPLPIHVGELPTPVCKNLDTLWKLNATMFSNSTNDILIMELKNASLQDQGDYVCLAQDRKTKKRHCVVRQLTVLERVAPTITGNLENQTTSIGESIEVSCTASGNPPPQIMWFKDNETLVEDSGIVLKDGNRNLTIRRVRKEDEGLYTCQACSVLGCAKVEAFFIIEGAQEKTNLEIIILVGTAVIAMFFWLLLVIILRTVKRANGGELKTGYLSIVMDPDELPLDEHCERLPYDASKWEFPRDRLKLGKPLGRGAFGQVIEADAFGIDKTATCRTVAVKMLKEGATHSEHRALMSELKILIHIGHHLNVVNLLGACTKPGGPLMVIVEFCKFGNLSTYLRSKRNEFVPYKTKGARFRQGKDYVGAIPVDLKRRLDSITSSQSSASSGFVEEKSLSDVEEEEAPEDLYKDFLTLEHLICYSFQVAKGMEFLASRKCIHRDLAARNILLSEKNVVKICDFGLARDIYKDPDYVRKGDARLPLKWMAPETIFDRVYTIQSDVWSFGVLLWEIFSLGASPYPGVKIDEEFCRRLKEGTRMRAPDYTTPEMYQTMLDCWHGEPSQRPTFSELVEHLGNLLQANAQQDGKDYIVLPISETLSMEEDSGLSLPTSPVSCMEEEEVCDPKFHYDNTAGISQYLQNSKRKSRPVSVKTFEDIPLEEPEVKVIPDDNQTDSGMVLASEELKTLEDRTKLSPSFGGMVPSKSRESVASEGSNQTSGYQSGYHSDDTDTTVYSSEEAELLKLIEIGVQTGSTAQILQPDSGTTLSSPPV

SMILES	IC50 [nM]
CCOCCN1CCN(c2ccc(-c3cc(-c4cnn(C)c4)cn4ncc(C#N)c34)cn2)CC1 [Example 397, 4-(6-(4-(2-ethoxyethyl)piperazin-1-yl)pyridin-3-yl)-6-(1-methyl-1H-pyrazol-4-yl)pyrazolo[1,5-a]pyridine-3-carbonitrile]	1500
Cn1cc(-c2cc(-c3ccc(N4CCC(C(=O)NOCC5CC5)CC4)nc3)c3c(C#N)cnn3c2)cn1 [Example 563, 1-(5-(3-cyano-6-(1-methyl-1H-pyrazol-4-yl)pyrazolo[1,5-a]pyridin-4-yl)pyridin-2-yl)-N-(cyclopropylmethoxy)piperidine-4-carboxamide]	195
Cn1cc(-c2cc(-c3ccc(N4CCN(CC5CC(F)(F)C5)CC4)nc3)c3c(C#N)cnn3c2)cn1 [Example 459, 4-(6-(4-((3,3-difluorocyclobutyl)methyl)piperazin-l-yl)pyridin-3-yl)-6-(1-methyl-1H-pyrazol-4-yl)pyrazolo[1,5-a]pyridine-3-carbonitrile]	≥ 5000
Cc1nccc(CN2CCN(c3ccc(-c4cc(-c5cnn(C)c5)cn5ncc(C#N)c45)cn3)CC2)n1 [Example 467, 6-(1-methyl-1H-pyrazol-4-yl)-4-(6-(4-((2-methylpyrimidin-4-yl)methyl)piperazin-l-yl)pyridin-3-yl)pyrazolo[1,5-a]pyridine-3-carbonitrile]	1540
C[C@@H](c1ccccc1)N1CCN(c2ccc(-c3cc(-c4cnn(C)c4)cn4ncc(C#N)c34)cn2)CC1 [Example 422, (S)-6-(1-methyl-1H-pyrazol-4-yl)-4-(6-(4-(1-phenylethyl)piperazin-1-yl)pyridine-3-yl)pyrazolo[1,5-a]pyridine-3-carbonitrile dihydrochloride]	942
Cn1cc(-c2cc(-c3ccc(N4CCN(C(=O)N5CC6CC6C5)CC4)nc3)c3c(C#N)cnn3c2)cn1 (stereo not drawn) [Example 380, 4-(6-(4-(3-azabicyclo[3.1.0]hexane-3-carbonyl)piperazin-1-yl)pyridin-3-yl)-6-(1-methyl-1H-pyrazol-4-yl)pyrazolo[1,5-a]pyridine-3-carbonitrile]	555
Cn1cc(-c2cc(-c3ccc(N4CCN(C(=O)N5CC[C@H](c6ccccc6)C5)CC4)nc3)c3c(C#N)cnn3c2)cn1 [Example 378, (R)-6-(1-methyl-1H-pyrazol-4-yl)-4-(6-(4-(3-phenylpyrrolidine-1-carbonyl)piperazin-1-yl)pyridin-3-yl)pyrazolo[1,5-a]pyridine-3-carbonitrile]	467
Cn1cc(-c2cc(-c3ccc(N4CCN(CCOC5CC5)CC4)nc3)c3c(C#N)cnn3c2)cn1 [Example 407, 4-(6-(4-(2-cyclopropoxyethyl)piperazin-1-yl)pyridin-3-yl)-6-(1-methyl-1H-pyrazol-4-yl)pyrazolo[1,5-a]pyridine-3-carbonitrile]	828
CN1CCCC12CCCN(c1ccc(-c3cc(-c4cnn(C)c4)cn4ncc(C#N)c34)cn1)C2 (stereo not drawn) [Example 557, 4-(6-(1-methyl-1,7-diazaspiro[4.5]decan-7-yl)pyridin-3-yl)-6-(1-methyl-1H-pyrazol-4-yl)pyrazolo[1,5-a]pyridine-3-carbonitrile]	802
CCN(CC)C(=O)N1CC2(CCN(c3ccc(-c4cc(-c5cnn(C)c5)cn5ncc(C#N)c45)cn3)CC2)C1 [Example 502, 7-(5-(3-cyano-6-(1-methyl-1H-pyrazol-4-yl)pyrazolo[1,5-a]pyridin-4-yl)pyridin-2-yl)-N,N-diethyl-2,7-diazaspiro[3.5]nonane-2-carboxamide]	437
Cn1cc(-c2cc(-c3ccc(N4CCN(Cc5ccc(F)cn5)CC4)nc3)c3c(C#N)cnn3c2)cn1 [Example 462, 4-(6-(4-((5-fluoropyridin-2-yl)methyl)piperazin-1-yl)pyridin-3-yl)-6-(1-methyl-1H-pyrazol-4-yl)pyrazolo[1,5-a]pyridine-3-carbonitrile]	804
Cn1cc(-c2cc(-c3ccc(N4CCN(Cc5ccccc5F)CC4)nc3)c3c(C#N)cnn3c2)cn1 [Example 427, 4-(6-(4-(2-fluorobenzyl)piperazin-1-yl)pyridin-3-yl)-6-(1-methyl-1H-pyrazol-4-yl)pyrazolo[1,5-a]pyridine-3-carbonitrile]	937
CO[C@](C(=O)N1CCN(c2ccc(-c3cc(-c4cnn(C)c4)cn4ncc(C#N)c34)cn2)CC1)(c1ccccc1)C(F)(F)F [Example 371, (S)-6-(1-methyl-1H-pyrazol-4-yl)-4-(6-(4-(3,3,3-trifluoro-2-methoxy-2-phenylpropanoyl)piperazin-1-yl)pyridin-3-yl)pyrazolo[1,5-a]pyridine-3-carbonitrile]	1910

Same assay, conditions: pKDR Cell HEK 10% FBS IC50, HEK-293 cells expressing inducible KDR, VEGF stimulated, 10% FBS

SMILES	IC50 [nM]
COC[C@@H]1CCCN1C(=O)N1CCN(c2ccc(-c3cc(-c4cnn(C)c4)cn4ncc(C#N)c34)cn2)CC1 [Example 111, (S)-4-(6-(4-(2-(methoxymethyl)pyrrolidine-1-carbonyl)piperazin-1-yl)pyridin-3-yl)-6-(1-methyl-1H-pyrazol-4-yl)pyrazolo[1,5-a]pyridine-3-carbonitrile]	1960
Cn1cc(-c2cc(-c3ccc(N4CCN(C(=O)N5CCC(C)(C)C5)CC4)nc3)c3c(C#N)cnn3c2)cn1 [Example 118, 4-(6-(4-(3,3-dimethylpyrrolidine-1-carbonyl)piperazin-1-yl)pyridin-3-yl)-6-(1-methyl-1H-pyrazol-4-yl)pyrazolo[1,5-a]pyridine-3-carbonitrile]	606
Cn1cc(-c2cc(-c3ccc(N4CCN(S(=O)(=O)N5CCCC5)CC4)nc3)c3c(C#N)cnn3c2)cn1 [Example 138, 6-(1-methyl-1H-pyrazol-4-yl)-4-(6-(4-(pyrrolidin-1-ylsulfonyl)piperazin-1-yl)pyridin-3-yl)pyrazolo[1,5-a]pyridine-3-carbonitrile]	16.1
Cn1cc(-c2cc(-c3ccc(N4CCN(C(=O)C5(C#N)CC5)CC4)nc3)c3c(C#N)cnn3c2)cn1 [Example 348, 4-(6-(4-(1-cyanocyclopropane-carbonyl)piperazin-1-yl)pyridin-3-yl)-6-(1-methyl-1H-pyrazol-4-yl)pyrazolo[1,5-a]pyridine-3-carbonitrile]	1410
Cn1cc(-c2cc(-c3ccc(N4CCN(C(=O)N5CCC(F)(F)C5)CC4)nc3)c3c(C#N)cnn3c2)cn1 [Example 101, 4-(6-(4-(3,3-difluoropyrrolidine-1-carbonyl)piperazin-1-yl)pyridin-3-yl)-6-(1-methyl-1H-pyrazol-4-yl)pyrazolo[1,5-a]pyridine-3-carbonitrile]	868
Cn1cc(-c2cc(-c3ccc(N4CCN(C(=O)[C@H](O)Cc5ccccc5)CC4)nc3)c3c(C#N)cnn3c2)cn1 [Example 9, (R)-4-(6-(4-(2-hydroxy-3-phenylpropanoyl)piperazin-1-yl)pyridin-3-yl)-6-(1-methyl-1H-pyrazol-4-yl)pyrazolo[1,5-a]pyridine-3-carbonitrile]	32.7
Cn1cc(-c2cc(-c3ccc(N4CCN(C(=O)N[C@@H]5CCOC5)CC4)nc3)c3c(C#N)cnn3c2)cn1 [Example 106, (R)-4-(5-(3-cyano-6-(1-methyl-1H-pyrazol-4-yl)pyrazolo[1,5-a]pyridin-4-yl)pyridin-2-yl)-N-(tetrahydrofuran-3-yl)piperazine-1-carboxamide]	1370
Cn1cc(-c2cc(-c3ccc(N4CCN(C(=O)C(O)c5ccc(F)cc5F)CC4)nc3)c3ccnn3c2)cn1 (stereo not drawn) [Example 317, 2-(2,4-difluorophenyl)-2-hydroxy-1-(4-(5-(6-(1-methyl-1H-pyrazol-4-yl)pyrazolo[1,5-a]pyridin-4-yl)pyridin-2-yl)piperazin-1-yl)ethanone]	≥ 5000
Cn1cc(-c2cc(-c3ccc(N4CCN(C(=O)[C@H](O)c5ccccc5)CC4)nc3)c3c(Cl)cnn3c2)cn1 [Example 327, (R)-1-(4-(5-(3-chloro-6-(1-methyl-1H-pyrazol-4-yl)pyrazolo[1,5-a]pyridin-4-yl)pyridin-2-yl)piperazin-1-yl)-2-hydroxy-2-phenylethanone]	606
Cn1cc(-c2cc(-c3ccc(N4CCN(C(=O)N5CCCC5)CC4)nc3)c3c(C#N)cnn3c2)cn1 [Example 125, 6-(1-methyl-1H-pyrazol-4-yl)-4-(6-(4-(pyrrolidine-1-carbonyl)piperazin-1-yl)pyridin-3-yl)pyrazolo[1,5-a]pyridine-3-carbonitrile]	616
CO[C@H]1CCN(C(=O)N2CCN(c3ccc(-c4cc(-c5ccn(C)n5)cn5ncc(C#N)c45)cn3)CC2)C1 [Example 274, (S)-4-(6-(4-(3-methoxypyrrolidine-1-carbonyl)piperazin-1-yl)pyridin-3-yl)-6-(1-methyl-1H-pyrazol-3-yl)pyrazolo[1,5-a]pyridine-3-carbonitrile]	≥ 5000
CC(C)[C@@H](O)C(=O)N1CCN(c2ncc(-c3cc(-c4cnn(C)c4)cn4ncc(C#N)c34)cn2)CC1 [Example 285, (R)-4-(2-(4-(2-hydroxy-3-methylbutanoyl)piperazin-1-yl)pyrimidin-5-yl)-6-(1-methyl-1H-pyrazol-4-yl)pyrazolo[1,5-a]pyridine-3-carbonitrile]	1710
Cn1cc(-c2cc(-c3cnc(N4CCN(C(=O)[C@H](O)c5ccccc5)CC4)cn3)c3c(C#N)cnn3c2)cn1 [Example 288, (R)-4-(5-(4-(2-hydroxy-2-phenylacetyl)piperazin-1-yl)pyrazin-2-yl)-6-(1-methyl-1H-pyrazol-4-yl)pyrazolo[1,5-a]pyridine-3-carbonitrile]	1940
Cn1cc(-c2cc(-c3ccc(N4CCN(C(=O)C(CO)c5ccccc5)CC4)nc3)c3c(C#N)cnn3c2)cn1 (stereo not drawn) [Example 16, 4-(6-(4-(3-hydroxy-2-phenylpropanoyl)piperazin-1-yl)pyridin-3-yl)-6-(1-methyl-1H-pyrazol-4-yl)pyrazolo[1,5-a]pyridine-3-carbonitrile]	435
